The values below come from PMC9713482, “Discovery of (R)-2-amino-3-triazolpropanoic acid derivatives as NMDA receptor glycine site agonists with GluN2 subunit-specific activity” (Frontiers in Chemistry, 2022).

What all share (experiment): cell-based
The target in test [1] is T1, GluN1/2B (Rattus norvegicus, UniProt P35439).
T1 construct: gene Grin1; full-length subunits co-expressed from cRNA (1:2) in Xenopus laevis oocytes; GluN2B ORF altered only silently; heterotetramer; with Glutamate receptor ionotropic, NMDA 2B
More on the design: species or system Xenopus laevis oocytes; two-electrode voltage-clamp recording of NMDA receptor agonist responses with 300 uM glutamate, relative to maximal glycine response. The following applies: Oocyte; 300 uM glutamate; read-out: % activation. How it is done:
(§1) Oocytes were injected with cRNAs for GluN1 and GluN2 subunits at a 1:2 ratio, and incubated as previously described ([Hansen et al., 2013]). The injected oocytes were used for two-electrode voltage-clamp recordings at room temperature (21–23°C) after 2–4 days of expression. as previously described ([Hansen et al., 2013]). The holding potential was −40 mV in all recordings. The recording solution was comprised of (in mM) 90 NaCl, 1 KCl, 10 HEPES, 0.5 BaCl2 and 0.01 EDTA (pH 7.4). For experiments with GluN1/2A or GluN1/2B receptors, the oocytes were injected at least 10 min before recordings with 50 mM BAPTA (30–50 nL) to minimize use-dependent increases in response amplitudes ([Williams, 1993]). Compounds were dissolved as 20–100 mM stock solutions in DMSO, and DMSO concentrations were constant in all recording solutions and never exceeded 1%. GraphPad Prism (GraphPad Software, La Jolla, CA) was used to analyze agonist concentration-response data. Briefly, the data for each oocyte were fitted to the following Hill equation, I = Rmax/(1 + 10^((logEC50-log [A])*nH)). […] The pharmacological properties of analogues 13a-j and 16 were determined with two-electrode voltage-clamp recordings of responses from recombinant NMDA receptor subtypes (Table 1; Figure 4). Compound 13f was identified as agonist with lower maximal response relative to glycine (Rmax) at GluN1/2A (47%) and GluN1/2B (23%), but Rmax similar to glycine at GluN1/2C (94%) and GluN1/2D (96%).

Test [2] deals with T2, GluN1/2C (Rattus norvegicus, UniProt P35439).
T2 construct: gene Grin1; full-length subunits co-expressed from cRNA (1:2) in Xenopus laevis oocytes; heterotetramer (human Q14957 was used only for modelling); with Glutamate receptor ionotropic, NMDA 2C
More on the design: species or system Xenopus laevis oocytes; two-electrode voltage-clamp recording of NMDA receptor agonist responses with 300 uM glutamate, relative to maximal glycine response. The following applies: Oocyte; 300 uM glutamate; read-out: % activation. The procedure: as §1

Test [3] deals with T3, GluN1/2D (Rattus norvegicus, UniProt P35439).
T3 construct: gene Grin1; full-length subunits co-expressed from cRNA (1:2) in Xenopus laevis oocytes; heterotetramer; with Glutamate receptor ionotropic, NMDA 2D
More on the design: species or system Xenopus laevis oocytes; two-electrode voltage-clamp recording of NMDA receptor agonist responses with 300 uM glutamate, relative to maximal glycine response. The following applies: Oocyte; 300 uM glutamate; read-out: % activation. The procedure:
as §1

For a further test, the target named is T4, GluN1/2A (Rattus norvegicus, UniProt P35439).
T4 construct: gene Grin1; full-length subunits co-expressed from cRNA (GluN1:GluN2 1:2) in Xenopus laevis oocytes; heterotetramer; glycine site in GluN1; with Glutamate receptor ionotropic, NMDA 2A
More on the design: species or system Xenopus laevis oocytes; Two-electrode voltage-clamp concentration-response of glycine-site agonists with saturating glutamate; efficacy relative to 100 uM glycine. The following applies: Oocyte; fitted maximum relative to 100 uM glycine, saturating glutamate; read-out: Rel. efficacy (%) / 99.6672727273 / 96.0542857143. From the text:
(§2) For expression in Xenopus laevis oocytes purchased from Rob Weymouth (Xenopus 1, Dexter, MI), cDNAs encoding rat NMDA receptor subunits, GluN1-1a (Genbank accession number U11418 and U08261), GluN2A (D13211), GluN2B (U11419), GluN2C (M91563), and GluN2D (L31611), were used to produce cRNAs using the mMessage mMachine kit (Ambion, Life Technologies, Paisley, United Kingdom) according to the manufacturer’s protocol. The open reading frame of the GluN2B subunit was altered without changing the amino acid sequence to remove a termination site for the T7 RNA polymerase used to synthesize cRNA ([Hansen et al., 2014]). Oocytes were injected with cRNAs for GluN1 and GluN2 subunits at a 1:2 ratio, and incubated as previously described ([Hansen et al., 2013]). The injected oocytes were used for two-electrode […] recordings at room temperature (21–23°C) after 2–4 days of expression. as previously described ([Hansen et al., 2013]). The holding potential was −40 mV in all recordings. The recording solution was comprised of (in mM) 90 NaCl, 1 KCl, 10 HEPES, 0.5 BaCl2 and 0.01 EDTA (pH 7.4). For experiments with GluN1/2A or GluN1/2B receptors, the oocytes were injected at least 10 min before recordings with 50 mM BAPTA (30–50 nL) to minimize use-dependent increases in response amplitudes ([Williams, 1993]). Compounds were dissolved as 20–100 mM stock solutions in DMSO, and DMSO concentrations were constant in all recording solutions and never exceeded 1%. GraphPad Prism (GraphPad Software, La Jolla, CA) was used to analyze agonist concentration-response data. Briefly, the data for each oocyte were fitted to the following Hill equation, I = Rmax/(1 + 10^((logEC50-log [A])*nH)).

Test [4] addresses T1, GluN1/2B. More on the design: species or system Xenopus laevis oocytes; Two-electrode voltage-clamp concentration-response of glycine-site agonists with saturating glutamate; efficacy relative to 100 uM glycine. The following applies: Oocyte; fitted maximum relative to 100 uM glycine, saturating glutamate; read-out: Rel. efficacy (%) / 100 / 100.0775.
Description: as §2

Test [5] deals with T2, GluN1/2C. More on the design: species or system Xenopus laevis oocytes; Two-electrode voltage-clamp concentration-response of glycine-site agonists with saturating glutamate; efficacy relative to 100 uM glycine. The conditions noted are these: Oocyte; fitted maximum relative to 100 uM glycine, saturating glutamate; read-out: Rel. efficacy (%) / 100 / 111.08.
Description: as §2

For test [6], the target named is T3, GluN1/2D. More on the design: species or system Xenopus laevis oocytes; Two-electrode voltage-clamp concentration-response of glycine-site agonists with saturating glutamate; efficacy relative to 100 uM glycine. The following applies: Oocyte; fitted maximum relative to 100 uM glycine, saturating glutamate; read-out: Rel. efficacy (%) / 100 / 92.671.
Description: as §2

Regarding `N[C@H](Cn1cc(CCO)nn1)C(=O)O` [13a, (R)-2-Amino-3-(4-(2-hydroxyethyl)-1H-1,2,3-triazol-1-yl)propanoic acid], the activity at 100 µM on GluN1/2B [1] was 6.2%; on GluN1/2C [2], 22%; at GluN1/2D [3] it was 34%.

`CCCCc1cn(C[C@@H](N)C(=O)O)nn1` [13b, (R)-2-Amino-3-(4-butyl-1H-1,2,3-triazol-1-yl)propanoic acid]: the activity at 100 µM at GluN1/2B [1] is 9.2%; at GluN1/2C [2], 27%; on GluN1/2D [3] it was 32%.

Consider `N[C@H](Cn1cc(Cc2ccccc2)nn1)C(=O)O` [13c, (R)-2-Amino-3-(4-benzyl-1H-1,2,3-triazol-1-yl)propanoic acid], for which the activity at 100 µM at GluN1/2C [2] worked out at 12%; on GluN1/2D [3], 5.9%.

In the case of `Nc1ccc(-c2cn(C[C@@H](N)C(=O)O)nn2)cc1` [13f, (R)-2-Amino-3-(4-(4-aminophenyl)-1H-1,2,3-triazol-1-yl)propanoic acid], the Emax amounted to 47.3% at GluN1/2A, 22.8% at GluN1/2B [4], 93.9% on GluN1/2C [5] and 96.5% on GluN1/2D [6].

Turning to `N[C@H](Cn1cc(-c2cccnc2)nn1)C(=O)O` [13g, (R)-2-Amino-3-(4-(pyridin-3-yl)-1H-1,2,3-triazol-1-yl)propanoic acid], the Emax at GluN1/2A turned out to be 65.5%; on GluN1/2B [4], 55.7%; at GluN1/2C [5], 96.9%; on GluN1/2D [6] it was 87.5%.

`N[C@H](Cn1cc(-c2ccsc2)nn1)C(=O)O` [13i, (R)-2-Amino-3-(4-(thiophen-3-yl)-1H-1,2,3-triazol-1-yl)propanoic acid]: the Emax was 56.4% at GluN1/2A, 46.3% on GluN1/2B [4], 81.9% on GluN1/2C [5] and 81.8% at GluN1/2D [6].
